Experimental findings from ChEMBL document CHEMBL4680206, “Novel pyrrolidinone derivative lacks claimed histamine H receptor stimulation in receptor binding and functional studies” (Eur J Med Chem, 2020) are described below.

pEC50, pKd, pKi: −log10 of the molar value. Calls of active or inactive are those of the source. The calls are words filed in the database; no cut-off is given here.

Assay [1] concerns the target T1, Histamine H3 receptor (Homo sapiens, UniProt Q9Y5N1). In words: Displacement of bodilisant from recombinant human histamine H3 receptor stably transfected in HEK-293T cells membrane at 1 to 10 uM incubated for 60 mins by fluorescence-polarization assay. To be noted: Cell membrane, dose 1-10 µM. Format: cell membranes.
For assay [2], the target named is T1, Histamine H3 receptor. Nature of the assay: Agonist activity at human H3 receptor expressed in HEK293 cells preincubated for 30 mins followed by [35S]-GTPgammaS addition and measured after 30 mins by liquid scintillation counting method. To be noted: time 60.0 min. The format is functional, cell-based.
In assay [3] the target is T1, Histamine H3 receptor. Nature of the assay: Antagonist activity at human H3 receptor expressed in HEK293 cells assessed as reversion of (R)alpha-MeHA induced activity preincubated for 30 mins followed by [35S]-GTPgammaS addition and measured after 30 mins by liquid scintillation counting method. Format: functional, cell-based. The conditions noted are these: filed as antagonist, time 60.0 min.

Assay [4] concerns the target T1, Histamine H3 receptor. Nature of the assay: Partial agonist activity at human H3 receptor stably transfected in CHO-DUKX cells assessed as […] by measuring reduction in forskolin level by HitHunter-cAMP assay relative to histamine. The format is functional, cell-based.
Assay [5] addresses T1, Histamine H3 receptor. In words: Displacement of [3H]Nalpha-methylhistamine from recombinant human histamine H3 receptor stably transfected in HEK-293T cells membrane incubated for 90 mins by scintillation counting method. Format: cell membranes, Cell membrane.
Assay [6] has as its target T1, Histamine H3 receptor. Nature of the assay: Antagonist activity at human H3 receptor expressed in CHO cells assessed as decrease in cAMP accumulation by measuring increase in forskolin level incubated for 4 hrs in presence of histamine by CRE/MRE-luciferase reporter gene assay. Format: functional, cell-based.
Assay [7] concerns the target T1, Histamine H3 receptor. In words: Agonist activity at human H3 receptor expressed in CHO cells assessed as […] by measuring reduction in forskolin level incubated for 4 hrs by CRE/MRE-luciferase reporter gene assay. The format is functional, cell-based.

T1 sequence (Q9Y5N1 whole entry): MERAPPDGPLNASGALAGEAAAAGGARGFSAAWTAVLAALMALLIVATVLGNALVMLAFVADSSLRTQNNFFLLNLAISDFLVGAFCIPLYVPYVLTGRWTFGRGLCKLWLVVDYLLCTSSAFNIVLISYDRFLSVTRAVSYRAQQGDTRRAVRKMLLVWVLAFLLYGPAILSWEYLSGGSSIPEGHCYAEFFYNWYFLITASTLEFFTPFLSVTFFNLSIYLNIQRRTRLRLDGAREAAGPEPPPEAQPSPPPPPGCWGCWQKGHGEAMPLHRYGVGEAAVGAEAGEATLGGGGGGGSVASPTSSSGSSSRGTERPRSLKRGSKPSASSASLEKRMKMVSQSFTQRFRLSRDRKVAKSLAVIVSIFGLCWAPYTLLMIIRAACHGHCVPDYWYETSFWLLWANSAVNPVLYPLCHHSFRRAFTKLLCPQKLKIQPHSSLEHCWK

Regarding `Clc1ccc(CCCOCCCN2CCCCC2)cc1`, the outcome on Histamine H3 receptor [1] (filed as antagonist) was Active.

Take `COc1cc(NC2(c3cccc(Cl)c3)C(=O)N(C(C)(C)C)C(=O)C2=Cc2ccccc2)cc(OC)c1OC` (centres undefined): the result on Histamine H3 receptor [1], at Histamine H3 receptor [2] and at Histamine H3 receptor [6] was inactive. Moreover, at Histamine H3 receptor [3], the result was Active. For the same compound, on Histamine H3 receptor [4], the Ratio worked out at 0.14. Further, the pKi on Histamine H3 receptor [5] is 5.49.

Take `CC1=CC(C)=[N+]2C1=C(c1ccc(OCCCN3CCCCC3)cc1)c1c(C)cc(C)n1[B-]2(F)F`: on Histamine H3 receptor [5], the pKd was 8.72.

`N=C(N)SCCc1cnc[nH]1` [IMETIT]: on Histamine H3 receptor [7], the pEC50 is 8.54.
